The source of these data is patent US9844563B2, “Compositions, kits, and methods to induce acquired cytoresistance using stress protein inducers” (FRED HUTCHINSON CANCER RESEARCH CENTER, priority 2014, dated 2017).

Series [1] deals with HO-1 mRNA. As to the kind of experiment: Renal cortical HO-1 mRNA (RT-PCR) after IV myoglobin, SnPP or both. The series is classed as in vivo, mice. To be noted: 4 hrs post IV injection. An excerpt:
The Glycerol Model of AKI. This is a widely used model of rhabdomyolysis-induced AKI that has been employed worldwide for 50 years. The model was used to test whether prophylactic interventions confer protection against AKI. Basically, the protocol is as follows: Male CD-1 mice (35-45 grams), obtained from Charles River Laboratories, Wilmington, Mass. were studied. Mice were maintained under standard vivarium conditions and generally housed for 1-3 weeks prior to study. The mice were placed in a cylindrical restraining cage, and then were given a tail vein injection of the test substances (see below) or test substance vehicle. The mice were then returned to their cages. Eighteen hours (hrs) later, the mice were briefly anesthetized by isoflurane inhalation, and given an intramuscular injection of hypertonic (50%) glycerol in a dose of 9 ml/Kg body weight. The dose is divided in two, with half injected into the muscle of each of the hind limbs. The mice were then returned to their cages. Eighteen hrs later, the mice were deeply anesthetized with pentobarbital (50-100 mg/Kg), the abdominal cavity was opened through a midline abdominal incision, a blood sample was obtained from the abdominal vena cava and the kidneys were resected. A kidney cross section was obtained and fixed in formalin for subsequent histologic analysis. The terminal blood samples were analyzed for BUN and creatinine, using commercially available assay kits. The remaining kidney tissue was subjected to cortical dissection, and the cortical tissues were then extracted for protein and RNA. The protein samples were saved for analysis of HO-1 levels, and the RNA samples were subjected to RT-PCR to quantify HO-1 mRNA as well as levels of other stress gene mRNAs (e.g. NGAL, haptoglobin, hemopexin, hepicidin).
Myoglobin+SnPP: To 5 mg of dry myoglobin was added 0.9 ml of PBS+0.1 ml of a stock SnPP solution (50 umole/ml). The resulting final concentrations were 5 mg/ml myoglobin+5 umoles/ml of SnPP. The tail vein was injected with 200 ul of this solution, which equals 1 mg myoglobin+1 umole SnPP. […]
Four hr post myoglobin vs myoglobin+SnPP vs SnPP alone experiments. To confirm that the myoglobin+SnPP has a synergistic effect in inducing HO-1 mRNA and HO-1 protein levels, each of the above combinations have been administered alone via tail vein injection. Four hrs later, the mice were sacrificed as noted above and the kidneys were harvested for assessment of HO-1 mRNA and protein levels. For additional information regarding methods, see Zager et al., Am J Physiol Renal Physiol. 2014 Jul. 30. Pii.

Details of series [2]: species or system mice. To be noted: mouse, in vivo, iv.
Series [3] deals with HO-1. Kind of series: Renal cortical HO-1 mRNA (RT-PCR) and protein (ELISA) after N-Mgb, SnPP or both. The series is classed as in vivo, mice. The protocol:
(§1) Thirty-two mice were divided into 4 equal groups: (1) control mice; (2) mice treated with 1 mg of N-Mgb injection (as a bolus through the tail vein); (3) mice treated with […] of SnPP (via tail vein); and (4) mice treated with combined N-Mgb 1 SnPP. After either 4 hours (n=16) or 18 hours (n=16), the mice were deeply anesthetized with pentobarbital (50 mg/kg), the abdomen was opened through a midline abdominal incision, and the kidneys were removed. To determine potential effects on extrarenal organs, a liver lobe and the heart were also removed. The tissues were iced and then extracted for protein and RNA (RNeasy Plus Mini; Qiagen, Valencia, Calif.) and subjected to enzyme linked immunosorbent assay (ELISA) and reverse transcriptase polymerase chain reaction (RT-PCR) for HO-1, haptoglobin, and IL-10 protein and messenger RNAs (mRNAs). Zager et al. J Am Soc Nephrol 2014;25:998-1012; Zager et al. Am J Physiol 2012;303:F139-48. As an assessment of renal function, control mice and the 18 hour after N-Mgb+SnPP—treated mice had blood urea nitrogen (BUN) and plasma creatinine levels measured. Additionally, transverse 10% formalin fixed kidney sections ([…]) were cut and stained with hematoxylin and eosin (H&E) and periodic acid Schiff (PAS) to further assess potential injury.
(In general: ELISA stands for enzyme-linked immunosorbent assay.)

Series [4] has as its system Haptoglobin. As to the kind of experiment: Renal cortical haptoglobin mRNA and protein after N-Mgb, SnPP or both. The series is classed as in vivo, mice. The settings on record: renal cortex, 4 h after Rx treatment. On the procedure: as §1
For series [5], the system named is IL-10. As to the kind of experiment: Liver IL-10 mRNA and protein after N-Mgb, SnPP or both. It is filed as in vivo, mice. To be noted: 18 h after Rx treatment. On the procedure:
as §1

The nature of series [6]: Glycerol model of rhabdomyolysis-induced AKI. It is filed as in vivo, mice. To be noted: IV pretreatment 18 hours before glycerol; 18 hours after glycerol. The protocol: Assessments of cytoresistance. Glycerol model of rhabdomyolysis-induced AKI. Twenty mice were divided into 4 equal groups (controls, mice treated with N-Mgb, SnPP, and mice treated with N-Mgb+SnPP tail vein injections) as described previously. 18 hours later, the mice were briefly anesthetized with isoflurane and immediately injected with 9 mL/kg of 50% glycerol, administered in equally divided doses into each hind limb. At 18 hours after glycerol injection, the mice were anesthetized with pentobarbital, the abdomen was opened, a blood sample for BUN and creatinine assessments was obtained from the vena cava, and the kidneys were resected. The control post-glycerol group and the N-Mgb+SnPP—pretreated glycerol group had kidney sections stained with H&E.
Calculations and statistics. All values are given as the mean […] standard error of the mean. Statistical comparisons were made by unpaired Student's t test. If multiple comparisons were made, the Bonferroni correction was applied. The severity of renal histologic injury in the glycerol AKI model was graded on a […] (least to most severe tubular necrosis and cast formation observed). The histologic results were compared by Wlcoxon rank sum test. Statistical significance was taken as a P value of <0.05.

For series [7], the system named is Mgb-exposed cultured proximal tubule (HK-2) cells. To be noted: Zager & Burkhart, Kidney Int 1997; cited from earlier work.
For series [8] the following is noted: Agarwal et al., Kidney Int. 1995; cited from earlier work.

Values joined by “and” are separate entries in the source; they are usually repeats but may differ in a detail not shown here. Equal entries are not always repeated.

As for `C=Cc1c2[n-]c(c1C)/C=c1\[n-]/c(c(C)c1C=C)=C\c1[n-]c(c(CCC(=O)O)c1C)C=c1[n-]/c(c(C)c1CCC(=O)O)=C\2.[Sn+4]` [SnPP, Sn-protoporphyrin, reference compound], the “HO-1 mRNA induction (HO-1/GAPDH mRNA), Average” value in series [1] (average) was found to be 6.94 HO-1/GAPDH mRNA. For the same molecule, the “HO-1 mRNA induction (HO-1/GAPDH mRNA), individual mice” value in series [1] (single animals) was 9.72 HO-1/GAPDH mRNA and 8.25 HO-1/GAPDH mRNA and 6.95 HO-1/GAPDH mRNA and 2.85 HO-1/GAPDH mRNA. Further, in series [2], the “Plasma LDH, Average” value worked out at 4.51 Absorbance U LDH/ml. Also, the “increase in renal HO-1 mRNA” value in series [3] (4 hours after IV injection, vs controls) is “only modest increases”. In series [3] (18 hours post-treatment, vs control values), the “increase in renal HO-1 protein” value is reported as “only relatively small HO-1 protein increases”. In addition, in series [4], the “Kidney Haptoglobin (protein)” value amounted to 13.1 ± 1.3. Moreover, in series [5], the “Liver mRNA IL-10” value was 0.05 ± 0.01. Also, the “protection against glycerol-induced AKI (BUN/creatinine levels)” value in series [6] is reported as “virtually no effect”. In series [7], the “reduction of Mgb toxicity by SnPP addition” value is not above 85%. In addition, the “effect of pretreatment on renal injury” value in series [8] was “exacerbated renal injury”.
